# Patent US20160060260A1, “BROMODOMAIN INHIBITORS FOR TREATING DISEASE” (Board of Regents, The University of Texas System, priority 2014, published 2016)
# Target: T1, Recombinant human His-tagged Trim24-PHD-bromodomain (Homo sapiens, UniProt O15164)
# T1 construct: Recombinant human His-tagged Trim24-PHD-bromodomain (produced in-house); made in house
# T1 sequence (O15164 824-1006 limits assumed): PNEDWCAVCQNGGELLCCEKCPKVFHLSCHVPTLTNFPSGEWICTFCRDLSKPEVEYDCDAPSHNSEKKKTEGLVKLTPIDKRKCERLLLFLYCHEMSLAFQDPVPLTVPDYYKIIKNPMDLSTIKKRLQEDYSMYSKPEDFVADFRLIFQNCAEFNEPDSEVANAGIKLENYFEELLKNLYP
# Test: Trim24 AlphaScreen Assay
# Type: binding
# Details: 5 nM Trim24 protein, 15 nM biotinylated H3K23ac (1-33aa) peptide
# In short: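 His-tagged Trim24-PHD-bromodomain, biotinylated H3K23ac (1-33aa) peptide and compound incubated 1 h at room temperature in 50 mM Hepes pH 7.5, 100 mM NaCl, 0.12 mM Triton X-100.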
row,SMILES,IC50
1,"CCCOc1cc(OCCCOC)cc(Oc2cc3c(cc2NS(=O)(=O)c2ccc(OC)c(OC)c2)n(C)c(=O)n3C)c1 [Example 138, 3,4-dimethoxy-N-(6-(3-(3-methoxypropoxy)-5-propoxyphenoxy)-1,3-dimethyl-2-oxo-2,3-dihydro-1H-benzo[d]imidazol-5-yl)benzenesulfonamide]",10 to 100 nM
2,"CCCOc1cc(OCCCOC)cc(Oc2cc3c(cc2NS(=O)(=O)c2cn(C(C)C)c(C)n2)n(C)c(=O)n3C)c1 [Example 139, 1-isopropyl-N-(6-(3-(3-methoxypropoxy)-5-propoxyphenoxy)-1,3-dimethyl-2-oxo-2,3-dihydro-1H-benzo[d]imidazol-5-yl)-2-methyl-1H-imidazole-4-sulfonamide]",10 to 100 nM
3,"CCCOc1cc(OCCCOC)cc(Oc2cc3c(cc2NS(=O)(=O)c2cn4c(n2)CCCC4)n(C)c(=O)n3C)c1 [Example 140, N-(6-(3-(3-methoxypropoxy)-5-propoxyphenoxy)-1,3-dimethyl-2-oxo-2,3-dihydro-1H-benzo[d]imidazol-5-yl)-5,6,7,8-tetrahydroimidazo[1,2-a]pyridine-2-sulfonamide]",10 to 100 nM
4,"COCCCOc1cc(OCC(F)(F)F)cc(Oc2cc3c(cc2NS(=O)(=O)c2cn(C)c(C)n2)n(C)c(=O)n3C)c1 [Example 141, N-(6-(3-(3-methoxypropoxy)-5-(2,2,2-trifluoroethoxy)phenoxy)-1,3-dimethyl-2-oxo-2,3-dihydro-1H-benzo[d]imidazol-5-yl)-1,2-dimethyl-1H-imidazole-4-sulfonamide]",10 to 100 nM
5,"C=CCOc1cccc(Oc2cc3c(cc2NS(=O)(=O)c2cccc4ccccc24)n(C)c(=O)n3C)c1 [Example 142, N-(6-(3-(allyloxy)phenoxy)-1,3-dimethyl-2-oxo-2,3-dihydro-1H-benzo[d]imidazol-5-yl)naphthalene-1-sulfonamide]",100 to 1000 nM
6,"C=CCOc1cccc(Oc2cc3c(cc2NS(=O)(=O)c2ccc(OC)c(NC(C)=O)c2)n(C)c(=O)n3C)c1 [Example 143, N-(5-(N-(6-(3-(allyloxy)phenoxy)-1,3-dimethyl-2-oxo-2,3-dihydro-1H-benzo[d]imidazol-5-yl)sulfamoyl)-2-methoxyphenyl)acetamide]",100 to 1000 nM
7,"C=CCOc1cccc(Oc2cc3c(cc2NS(=O)(=O)c2ccccn2)n(C)c(=O)n3C)c1 [Example 144, N-(6-(3-(allyloxy)phenoxy)-1,3-dimethyl-2-oxo-2,3-dihydro-1H-benzo[d]imidazol-5-yl)pyridine-2-sulfonamide]",100 to 1000 nM
8,"COc1ccc(S(=O)(=O)Nc2cc3c(cc2Oc2cccc(OCCCCCCN)c2)n(C)c(=O)n3C)cc1OC [Example 145, N-(6-(3-((6-aminohexyl)oxy)phenoxy)-1,3-dimethyl-2-oxo-2,3-dihydro-1H-benzo[d]imidazol-5-yl)-3,4-dimethoxybenzenesulfonamide]",10 to 100 nM
9,"Cn1cnc(S(=O)(=O)Nc2cc3c(cc2Oc2cccc(OCCCCCCN)c2)n(C)c(=O)n3C)c1 [Example 146, N-(6-(3-((6-aminohexyl)oxy)phenoxy)-1,3-dimethyl-2-oxo-2,3-dimethyl-2-oxo-2,3-dihydro-1H-benzo[d]imidazol-5-yl)-1-methyl-1H-imidazole-4-sulfonamide]",100 to 1000 nM
10,"CCCOc1cc(OCCCOC)cc(Oc2cc3c(cc2NS(=O)(=O)c2cn(CC(C)C)cn2)n(C)c(=O)n3C)c1 [Example 147, 1-isobutyl-N-(6-(3-(3-methoxypropoxy)-5-propoxyphenoxy)-1,3-dimethyl-2-oxo-2,3-dihydro-1H-benzo[d]imidazol-5-yl)-1H-imidazole-4-sulfonamide]",10 to 100 nM
11,"CCCOc1cc(OCCCOC)cc(Oc2cc3c(cc2NS(=O)(=O)c2cn(C(C)CC)cn2)n(C)c(=O)n3C)c1 (stereo not shown) [Example 148, 1-(sec-butyl)-N-(6-(3-(3-methoxypropoxy)-5-propoxyphenoxy)-1,3-dimethyl-2-oxo-2,3-dihydro-1H-benzo[d]imidazol-5-yl)-1H-imidazole-4-sulfonamide]",10 to 100 nM
12,"CCCOc1cc(OCCCOC)cc(Oc2cc3c(cc2NS(=O)(=O)c2cn(C)c(Cl)n2)n(C)c(=O)n3C)c1 [Example 149, 2-chloro-N-(6-(3-(3-methoxypropoxy)-5-propoxyphenoxy)-1,3-dimethyl-2-oxo-2,3-dihydro-1H-benzo[d]imidazol-5-yl)-1-methyl-1H-imidazole-4-sulfonamide]",10 to 100 nM
13,"CCCOc1cc(OCCCOC)cc(Oc2cc3c(cc2NS(=O)(=O)C2CC2)n(C)c(=O)n3C)c1 [Example 150, N-(6-(3-(3-methoxypropoxy)-5-propoxyphenoxy)-1,3-dimethyl-2-oxo-2,3-dihydro-1H-benzo[d]imidazol-5-yl)cyclopropanesulfonamide]",100 to 1000 nM
14,"CCCOc1cc(OCCCOC)cc(Oc2cc3c(cc2NS(=O)(=O)c2cccc(OC)c2)n(C)c(=O)n3C)c1 [Example 151, 3-methoxy-N-(6-(3-(3-methoxypropoxy)-5-propoxyphenoxy)-1,3-dimethyl-2-oxo-2,3-dihydro-1H-benzo[d]imidazol-5-yl)benzenesulfonamide]",10 to 100 nM
15,"CCCOc1cc(OCCCOC)cc(Oc2cc3c(cc2NS(=O)(=O)c2cn(C)cn2)n(C)c(=O)n3C)c1 [Example 152, N-(6-(3-(3-methoxypropoxy)-5-propoxyphenoxy)-1,3-dimethyl-2-oxo-2,3-dihydro-1H-benzo[d]imidazol-5-yl)-1-methyl-1H-imidazole-4-sulfonamide]",10 to 100 nM
16,"CCCOc1cc(OCCCOC)cc(Oc2cc3c(cc2NS(=O)(=O)c2cnn(C)c2)n(C)c(=O)n3C)c1 [Example 153, N-(6-(3-(3-methoxypropoxy)-5-propoxyphenoxy)-1,3-dimethyl-2-oxo-2,3-dihydro-1H-benzo[d]imidazol-5-yl)-1-methyl-1H-pyrazole-4-sulfonamide]",10 to 100 nM
17,CCCOc1cc(OCCCOC)cc(Oc2cc3c(cc2NS(=O)(=O)c2cnn(C)c2C)n(C)c(=O)n3C)c1 [Example 154],10 to 100 nM

# Other lines, results leading:
row,IC50,SMILES
1,100 to 1000 nM,"CCCOc1cc(OCCCOC)cc(Oc2cc3c(cc2NS(=O)(=O)c2cccc(C)c2)n(C)c(=O)n3C)c1 [Example 155, N-(6-(3-(3-methoxypropoxy)-5-propoxyphenoxy)-1,3-dimethyl-2-oxo-2,3-dihydro-1H-benzo[d]imidazol-5-yl)-3-methylbenzenesulfonamide]"
2,100 to 1000 nM,"CCCOc1cc(OCCCOC)cc(Oc2cc3c(cc2NS(=O)(=O)c2cccc(F)c2)n(C)c(=O)n3C)c1 [Example 156, 3-fluoro-N-(6-(3-(3-methoxypropoxy)-5-propoxyphenoxy)-1,3-dimethyl-2-oxo-2,3-dihydro-1H-benzo[d]imidazol-5-yl)benzenesulfonamide]"
3,100 to 1000 nM,"CCCOc1cc(OCCCOC)cc(Oc2cc3c(cc2NS(=O)(=O)c2ccc(OC)cc2)n(C)c(=O)n3C)c1 [Example 157, 4-methoxy-N-(6-(3-(3-methoxypropoxy)-5-propoxyphenoxy)-1,3-dimethyl-2-oxo-2,3-dihydro-1H-benzo[d]imidazol-5-yl)benzenesulfonamide]"
4,10 to 100 nM,"CCCOc1cc(OCCCOC)cc(Oc2cc3c(cc2NS(=O)(=O)c2ccccn2)n(C)c(=O)n3C)c1 [Example 158, N-(6-(3-(3-methoxypropoxy)-5-propoxyphenoxy)-1,3-dimethyl-2-oxo-2,3-dihydro-1H-benzo[d]imidazol-5-yl)pyridine-2-sulfonamide]"
5,10 to 100 nM,"CCCOc1cc(OCCCOC)cc(Oc2cc3c(cc2NS(=O)(=O)c2ccc(OC)c(NC(C)=O)c2)n(C)c(=O)n3C)c1 [Example 159, N-(2-methoxy-5-(N-(6-(3-(3-methoxypropoxy)-5-propoxyphenoxy)-1,3-dimethyl-2-oxo-2,3-dihydro-1H-benzo[d]imidazol-5-yl)sulfamoyl)phenyl)acetamide]"
6,100 to 1000 nM,"CCCOc1cc(OCCCOC)cc(Oc2cc3c(cc2NS(=O)(=O)c2cccc(CC)c2)n(C)c(=O)n3C)c1 [Example 160, 3-ethyl-N-(6-(3-(3-methoxypropoxy)-5-propoxyphenoxy)-1,3-dimethyl-2-oxo-2,3-dihydro-1H-benzo[d]imidazol-5-yl)benzenesulfonamide]"
7,100 to 1000 nM,"CCCOc1cc(OCCCOC)cc(Oc2cc3c(cc2NS(=O)(=O)c2ccc(OCC)c(C)c2)n(C)c(=O)n3C)c1 [Example 161, 4-ehoxy-N-(6-(3-(3-methoxypropoxy)-5-propoxyphenoxy)-1,3-dimethyl-2-oxo-2,3-dihydro-benzo[d]imidazol-5-yl)-3-methylbenzenesulfonamide]"
8,100 to 1000 nM,"CCCOc1cc(OCCCOC)cc(Oc2cc3c(cc2NS(=O)(=O)c2ccc4c(c2)COC4)n(C)c(=O)n3C)c1 [Example 162, N-(6-(3-(3-methoxypropoxy)-5-propoxyphenoxy)-1,3-dimethyl-2-oxo-2,3-dihydro-1H-benzo[d]imidazol-5-yl)-1,3-dihydroisobenzofuran-5-sulfonamide]"
9,100 to 1000 nM,"CCCOc1cc(OCCCOC)cc(Oc2cc3c(cc2NS(=O)(=O)c2ccccc2)n(C)c(=O)n3C)c1 [Example 163, N-(6-(3-(3-methoxypropoxy)-5-propoxyphenoxy)-1,3-dimethyl-2-oxo-2,3-dihydro-1H-benzo[d]imidazol-5-yl)benzenesulfonamide]"
10,100 to 1000 nM,"CCCOc1cc(OCCCOC)cc(Oc2cc3c(cc2NS(=O)(=O)c2cccc(C(C)C)c2)n(C)c(=O)n3C)c1 [Example 164, 3-isopropyl-N-(6-(3-(3-methoxypropoxy)-5-propoxyphenoxy)-1,3-dimethyl-2-oxo-2,3-dihydro-1H-benzo[d]imidazol-5-yl)benzenesulfonamide]"
11,10 to 100 nM,"CCCOc1cc(OCCCOC)cc(Oc2cc3c(cc2NS(=O)(=O)c2cccc(C#N)c2)n(C)c(=O)n3C)c1 [Example 165, 3-cyano-N-(6-(3-(3-methoxypropoxy)-5-propoxyphenoxy)-1,3-dimethyl-2-oxo-2,3-dihydro-1H-benzo[d]imidazol-5-yl)benzenesulfonamide]"
